Test results as given in patent US12528838B2, “Cyclic dominant negative competence stimulating peptide analogs and methods of treating Streptococcus pneumoniae infections” (priority 2019, dated 2026).
Where two headings read alike, the source gives them in different places. Bridge positions count the residues as written; N and C are the ends. Square brackets hold non-standard residues; d marks the D form. Peptide text beside a SMILES is read from it. Dab = NCC[C@H](N)C(=O)O; Dap = NC[C@H](N)C(=O)O

Columns and labels:
[1] = target: ComD1 receptor (Streptococcus pneumoniae serotype 2, UniProt A0A0H2ZM50); assay: cell-based; format: cell-based; conditions: for maximal induction of comX compared to CSP1 / potency higher than CSP1-cyc(Orn6D10): ComD1
Sequence of ComD1 receptor (A0A0H2ZM50 entry or part of it): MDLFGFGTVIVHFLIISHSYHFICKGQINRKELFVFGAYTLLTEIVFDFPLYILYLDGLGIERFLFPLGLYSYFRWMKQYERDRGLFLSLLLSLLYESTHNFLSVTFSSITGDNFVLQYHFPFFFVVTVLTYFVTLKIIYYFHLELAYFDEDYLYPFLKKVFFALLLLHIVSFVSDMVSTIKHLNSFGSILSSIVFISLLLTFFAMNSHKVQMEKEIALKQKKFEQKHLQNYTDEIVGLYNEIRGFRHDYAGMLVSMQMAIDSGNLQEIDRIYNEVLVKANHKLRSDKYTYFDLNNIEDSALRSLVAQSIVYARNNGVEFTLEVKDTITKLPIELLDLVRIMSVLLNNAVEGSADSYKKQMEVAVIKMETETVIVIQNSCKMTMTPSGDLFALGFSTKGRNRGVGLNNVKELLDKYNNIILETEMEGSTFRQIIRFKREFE
Description: (§1) Biological evaluation of cyclic dnCSPs. The cyclic dnCSPs will be assessed for inhibition of competence induction using the β-gal, lux (FIG. 11) or luc (FIG. 15) reporter systems we have optimized for the analysis of a large number of signal variants in 96-well plates. All assays will be performed in triplicates and independently three times. Serial dilutions of dnCSPs will be conducted to determine the EC50 and IC50 values of promising dnCSPs through initial screening. Data from reporter assays will be analyzed using the GraphPad Prism software. The lead dnCSPs will be assessed for their therapeutic potential using multiple in vitro assays, including attenuation of ComX-induction (reporter systems), genetic transformation, allolysis (zymogram assays), and release of PLY (hemolysis & Western blots). Lastly, the pneumococcal competence system regulates biofilm formation, which is important for the pathogenesis of […]. The ability of the dnCSPs to inhibit biofilm formation will be evaluated after 24 hr of growth on 1% BSA coated coverslips placed in flat-bottom polystyrene tissue culture plates by staining with FilmTracer LIVE/DEAD Biofilm viability kit (Invitrogen, L10316), and visualized using a confocal microscope and Z-stacked to construct 3D-images.

[2] = target: ComD2 receptor (Streptococcus pneumoniae serotype 4, UniProt A0A0H2US84); assay: cell-based; format: cell-based
Sequence of ComD2 receptor (A0A0H2US84 entry or part of it): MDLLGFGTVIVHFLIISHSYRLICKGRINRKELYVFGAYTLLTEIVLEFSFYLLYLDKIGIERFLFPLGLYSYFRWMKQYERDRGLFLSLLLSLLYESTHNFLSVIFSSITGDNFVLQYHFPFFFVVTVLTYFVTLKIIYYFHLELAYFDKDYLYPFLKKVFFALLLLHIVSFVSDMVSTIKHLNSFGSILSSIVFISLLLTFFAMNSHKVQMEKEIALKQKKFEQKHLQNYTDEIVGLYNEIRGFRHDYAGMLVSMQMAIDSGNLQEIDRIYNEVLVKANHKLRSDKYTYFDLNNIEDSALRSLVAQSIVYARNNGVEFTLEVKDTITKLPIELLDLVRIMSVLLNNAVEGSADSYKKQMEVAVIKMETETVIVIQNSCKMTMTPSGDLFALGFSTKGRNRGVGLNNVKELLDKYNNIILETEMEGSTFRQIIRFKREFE
Description: as §1, with “The cyclic dnCSPs will be assessed for inhibition of competence induction using the β-gal, lux (FIG. 11) or luc (FIG. 15) reporter systems we have optimized for the analysis of a large number of signal variants in 96-well plates.” left out

Compound	EC50 [1]	maximal induction of comX compared to CSP1 [1]	EC50 [2]	further results
CSP1-E1AK6A (AMRLSAFFRDFILQRKK)				inhibition of ComD receptors [1]: could only strongly inhibit the ComD1 receptor
CC[C@H](C)[C@H](NC(=O)[C@H](Cc1ccccc1)NC(=O)[C@@H]1CC(=O)NCCC[C@H](NC(=O)[C@H](CO)NC(=O)[C@H](CC(C)C)NC(=O)[C@H](CCCNC(=N)N)NC(=O)[C@H](CCSC)NC(=O)[C@@H](N)CCC(=O)O)C(=O)N[C@@H](Cc2ccccc2)C(=O)N[C@@H](Cc2ccccc2)C(=O)N[C@@H](CCCNC(=N)N)C(=O)N1)C(=O)N[C@@H](CC(C)C)C(=O)N[C@@H](CCC(N)=O)C(=O)N[C@@H](CCCNC(=N)N)C(=O)N[C@@H](CCCCN)C(=O)N[C@@H](CCCCN)C(=O)O [CSP1-cyc(Orn6D10)]	193 nM	100%	> 1000 nM	
CC[C@H](C)[C@H](NC(=O)[C@H](Cc1ccccc1)NC(=O)[C@@H]1CCC(=O)NC[C@H](NC(=O)[C@H](CO)NC(=O)[C@H](CC(C)C)NC(=O)[C@H](CCCNC(=N)N)NC(=O)[C@H](CCSC)NC(=O)[C@H](C)N)C(=O)N[C@@H](Cc2ccccc2)C(=O)N[C@@H](Cc2ccccc2)C(=O)N[C@@H](CCCNC(=N)N)C(=O)N1)C(=O)N[C@@H](CC(C)C)C(=O)N[C@@H](CCC(N)=O)C(=O)N[C@@H](CCCNC(=N)N)C(=O)O [CSP1-E1A-des-K16K17-cyc(Dap6E10), A-M-R-L-S-(Dap-F-F-R-E)-F-I-L-Q-R] (H-AMRLS[Dap]FFREFILQR-OH; lactam 6-10; N-terminus and C-terminus assumed)				IC50 [1]: 7.57 nM; higher inhibition potency against the ComD1 receptor compared to parent CSP1-E1A-cyc(Dap6E10) [1]: ~10 fold; IC50 [2]: 67.2 nM; higher inhibition potency against the ComD2 receptor compared to parent CSP1-E1A-cyc(Dap6E10) [2]: 3 fold
CC[C@H](C)[C@H](NC(=O)[C@H](Cc1ccccc1)NC(=O)[C@H](CC(=O)O)NC(=O)[C@@H]1CC(=O)NCCCC[C@H](NC(=O)[C@H](CO)NC(=O)[C@H](CC(C)C)NC(=O)[C@H](CCCNC(=N)N)NC(=O)[C@H](CCSC)NC(=O)[C@@H](N)CCC(=O)O)C(=O)N[C@@H](Cc2ccccc2)C(=O)N[C@@H](Cc2ccccc2)C(=O)N1)C(=O)N[C@@H](CC(C)C)C(=O)N[C@@H](CCC(N)=O)C(=O)N[C@@H](CCCNC(=N)N)C(=O)N[C@@H](CCCCN)C(=O)N[C@@H](CCCCN)C(=O)O [CSP1-cyc(K6D9)] (H-EMRLSKFFDDFILQRKK-OH; lactam 6-9; N-terminus and C-terminus assumed)	> 1000 nM		528 nM	
CC[C@H](C)[C@H](NC(=O)[C@H](Cc1ccccc1)NC(=O)[C@@H]1CC(=O)NCCCC[C@H](NC(=O)[C@H](CO)NC(=O)[C@H](CC(C)C)NC(=O)[C@H](CCCNC(=N)N)NC(=O)[C@H](CCSC)NC(=O)[C@@H](N)CCC(=O)O)C(=O)N[C@@H](Cc2ccccc2)C(=O)N[C@@H](Cc2ccccc2)C(=O)N[C@@H](CCCNC(=N)N)C(=O)N1)C(=O)N[C@@H](CC(C)C)C(=O)N[C@@H](CCC(N)=O)C(=O)N[C@@H](CCCNC(=N)N)C(=O)N[C@@H](CCCCN)C(=O)N[C@@H](CCCCN)C(=O)O [CSP1-cyc(K6D10)]	258 nM	44%	> 1000 nM	
CC[C@H](C)[C@@H]1NC(=O)[C@H](Cc2ccccc2)NC(=O)[C@@H](NC(=O)[C@H](CCCNC(=N)N)NC(=O)[C@H](Cc2ccccc2)NC(=O)[C@H](Cc2ccccc2)NC(=O)[C@H](CCCCN)NC(=O)[C@H](CO)NC(=O)[C@H](CC(C)C)NC(=O)[C@H](CCCNC(=N)N)NC(=O)[C@H](CCSC)NC(=O)[C@@H](N)CCC(=O)O)CCCCNC(=O)C[C@@H](C(=O)N[C@@H](CCCNC(=N)N)C(=O)N[C@@H](CCCCN)C(=O)N[C@@H](CCCCN)C(=O)O)NC(=O)[C@H](CC(C)C)NC1=O [CSP1-cyc(K10D14)] (H-EMRLSKFFRKFILDRKK-OH; lactam 10-14; N-terminus and C-terminus assumed)	257 nM			
CC[C@H](C)[C@H](NC(=O)[C@H](Cc1ccccc1)NC(=O)[C@@H]1CCC(=O)NCC[C@H](NC(=O)[C@H](CO)NC(=O)[C@H](CC(C)C)NC(=O)[C@H](CCCNC(=N)N)NC(=O)[C@H](CCSC)NC(=O)[C@H](C)N)C(=O)N[C@@H](Cc2ccccc2)C(=O)N[C@@H](Cc2ccccc2)C(=O)N[C@@H](CCCNC(=N)N)C(=O)N1)C(=O)N[C@@H](CC(C)C)C(=O)N[C@@H](CCC(N)=O)C(=O)N[C@@H](CCCNC(=N)N)C(=O)N[C@@H](CCCCN)C(=O)N[C@@H](CCCCN)C(=O)O [CSP1-E1A-cyc(Dab6E10), A-M-R-L-S-(Dab-F-F-R-E)-F-I-L-Q-R-K-K] (H-AMRLS[Dab]FFREFILQRKK-OH; lactam 6-10; N-terminus and C-terminus assumed)				IC50 [1]: 173 nM; IC50 [2]: > 1000 nM; IC50 ([2]; read-out: ComD2 IC50 (95% CI), Table 2, β-gal reporter, IC50 values in italic font): > 1000 nM
CC[C@H](C)[C@H](NC(=O)[C@H](Cc1ccccc1)NC(=O)[C@@H]1CCC(=O)NC[C@H](NC(=O)[C@H](CO)NC(=O)[C@H](CC(C)C)NC(=O)[C@H](CCCNC(=N)N)NC(=O)[C@H](CCSC)NC(=O)[C@@H](N)CCC(=O)O)C(=O)N[C@@H](Cc2ccccc2)C(=O)N[C@@H](Cc2ccccc2)C(=O)N[C@@H](CCCNC(=N)N)C(=O)N1)C(=O)N[C@@H](CC(C)C)C(=O)N[C@@H](CCC(N)=O)C(=O)N[C@@H](CCCNC(=N)N)C(=O)N[C@@H](CCCCN)C(=O)N[C@@H](CCCCN)C(=O)O [CSP1-cyc(Dap6E10)] (H-EMRLS[Dap]FFREFILQRKK-OH; lactam 6-10; N-terminus and C-terminus assumed)	14.6 nM	100%	13.1 nM	potency higher than CSP1-cyc(Orn6D10) [1]: 10 fold; potency against ComD2 receptor higher than CSP2 [2]: about 4 fold
CC[C@H](C)[C@@H]1NC(=O)[C@H](Cc2ccccc2)NC(=O)[C@H](CC(=O)O)NC(=O)[C@H](CCCNC(=N)N)NC(=O)[C@H](Cc2ccccc2)NC(=O)[C@H](Cc2ccccc2)NC(=O)[C@@H](NC(=O)[C@H](CO)NC(=O)[C@H](CC(C)C)NC(=O)[C@H](CCCNC(=N)N)NC(=O)[C@H](CCSC)NC(=O)[C@@H](N)CCC(=O)O)CCCCNC(=O)C[C@@H](C(=O)N[C@@H](CCCNC(=N)N)C(=O)N[C@@H](CCCCN)C(=O)N[C@@H](CCCCN)C(=O)O)NC(=O)[C@H](CC(C)C)NC1=O [CSP1-cyc(K6D14)] (H-EMRLSKFFRDFILDRKK-OH; lactam 6-14; N-terminus and C-terminus assumed)	> 1000 nM		> 1000 nM	
CC[C@H](C)[C@H](NC(=O)[C@H](Cc1ccccc1)NC(=O)[C@@H]1CCC(=O)NCC[C@H](NC(=O)[C@H](CO)NC(=O)[C@H](CC(C)C)NC(=O)[C@H](CCCNC(=N)N)NC(=O)[C@H](CCSC)NC(=O)[C@@H](N)CCC(=O)O)C(=O)N[C@@H](Cc2ccccc2)C(=O)N[C@@H](Cc2ccccc2)C(=O)N[C@@H](CCCNC(=N)N)C(=O)N1)C(=O)N[C@@H](CC(C)C)C(=O)N[C@@H](CCC(N)=O)C(=O)N[C@@H](CCCNC(=N)N)C(=O)N[C@@H](CCCCN)C(=O)N[C@@H](CCCCN)C(=O)O [CSP1-cyc(Dab6E10)] (H-EMRLS[Dab]FFREFILQRKK-OH; lactam 6-10; N-terminus and C-terminus assumed)	12.2 nM	100%	31.4 nM	potency higher than CSP1-cyc(Orn6D10) [1]: 10 fold
